# Source: US20140142129A1, “METHODS OF TREATING A DISEASE OR DISORDER ASSOCIATED WITH BRUTON'S TYROSINE KINASE” (Celgene Avilomics Research, Inc,, priority 2012, published 2014)
# How the values were obtained:
# [1] = Environmental stability (heat, acid, base); format: physicochemical
# [2] = system: B-cell non-Hodgkin lymphoma; assay: Single agent (monotherapy) clinical study in B-cell non-Hodgkin lymphoma patients; format: in vivo
# [3] = Safety in single dose studies in healthy subjects; format: in vivo, human
SMILES,"environmental instabilities (heat, acid, base) [1]","patients with stable disease continuing on treatment ([2]; B-cell non-Hodgkin lymphoma, monotherapy, as of Sep. 11, 2012)","patients with decreased lymph node size ([2]; evaluable B-NHL patients, monotherapy)","maximum tolerated dose (MTD) ([2]; single agent, up to 750 mg PO QD)",safety [3]
"C=CC(=O)Nc1cccc(Nc2nc(Nc3ccc(OCCOC)cc3)ncc2F)c1.O=S(=O)(O)c1ccccc1 [Compound 1 besylate, N-(3-(5-fluoro-2-(4-(2-methoxyethoxy)phenylamino)pyrimidin-4-ylamino)phenyl)acrylamide benzenesulfonic acid salt]",no environmental instabilities,9 out of 17,Six of eleven,,
"C=CC(=O)Nc1cccc(Nc2nc(Nc3ccc(OCCOC)cc3)ncc2F)c1 [Compound 1, N-(3-(5-fluoro-2-(4-(2-methoxyethoxy)phenylamino)pyrimidin-4-ylamino)phenyl)acrylamide]",,,,has not yet been reached,adequate safety
